According to patent US20100173919A1, “PHARMACEUTICAL COMPOSITION USING ALISKIREN AND AVOSENTAN” (priority 2006, published 2010):

Test system: double transgenic rats over-expressing both, the gene for human renin and the gene for human angiotensinogen
Test: Urinary albumin excretion (albuminuria) in double transgenic rat model of malignant hypertension with renal complications
Assay type: in vivo
Source text: An animal model for spontaneously malignant hypertension with renal complications is represented by double transgenic rats over-expressing both, the gene for human renin and the gene for human angiotensinogen. This double transgenic rat strain is produced by crossbreeding two transgenic strains, one for human angiotensinogen with the endogenous promoter and one for human renin with the endogenous promoter. Neither single transgenic strain is hypertensive. […] The fact that human renin can be studied in the rat is a unique feature of this model and allows the extrapolation to clinical high renin hypertension. […] Each agent can be tested over a wide range of dosages to determine the optimal drug level for each agent in combination to elicit the maximal response. Each study group is best performed in which the effects of the combination treatment group are determined at the same time as the individual components are evaluated. Although drug effects may be observed upon short term treatment, it is preferable to observe responses in a chronic setting as shown below in which experiments were done over a three to seven week observation period. The long-term duration study is of sufficient duration to allow for the full development of compensatory responses to occur and therefore, the observed effect will most likely depict the actual responses of the test system representing sustained or persistent effects. The combination therapy can be compared to that of the respective monotherapies by determining the maximum change in 24 hour urinary protein content at a given day. All values are represented as the group mean±standard error of the mean (SEM). Statistical significance is obtained when p<0.05. The albuminuria values for each of the treatment groups can be compared statistically using a one-way ANOVA followed by the appropriate post-hoc analysis, for example by performing a Bonferoni test. Four week old double transgenic rats were treated daily by oral gavage with SPP100/aliskiren at a dose of 10 mg/kg, SPP301/avosentan at doses of 10 and 30 mg/kg and combinations of SPP100/aliskiren with SPP301/avosentan at the same doses. After three, five and seven weeks of drug treatment, 24 hour urine samples are collected using metabolic cages. The urinary albumin content is measured by ELISA using a commercial kit ([…] GmbH, Luckenwalde, Germany).

## COCCCOc1cc(C[C@@H](C[C@H](N)[C@@H](O)C[C@H](C(=O)NCC(C)(C)C(N)=O)C(C)C)C(C)C)ccc1OC [SPP100, aliskiren]
SPP100 10 mg/kg daily oral gavage, Baseline, 24 h urine, ELISA
  Albuminuria: mean ± SEM: 469 ± 64 ug/24 h
SPP100 10 mg/kg daily oral gavage, treatment week 3
  Albuminuria: mean ± SEM: 3046 ± 734 ug/24 h
SPP100 10 mg/kg daily oral gavage, treatment week 5
  Albuminuria: mean ± SEM: 12356 ± 3194 ug/24 h
SPP100 10 mg/kg daily oral gavage, treatment week 7
  Albuminuria: mean ± SEM: 22268 ± 5067 ug/24 h
SPP100/aliskiren 10 mg/kg daily oral, after seven weeks of treatment
  mean urinary albumin excretions: up to 22.3 mg

## COc1ccccc1Oc1c(NS(=O)(=O)c2ccc(C)cn2)nc(-c2ccncc2)nc1OC [SPP301, 5-methyl-pyridine-2-sulfonic acid [6-methoxy-5-(2-methoxy-phenoxy)-2-pyridin-4-yl-pyrimidin-4-yl]-amide]
SPP301 10 mg/kg daily oral gavage, Baseline
  Albuminuria: mean ± SEM: 422 ± 128 ug/24 h
SPP301 10 mg/kg daily oral gavage, treatment week 3
  Albuminuria: mean ± SEM: 14213 ± 4658 ug/24 h
SPP301 10 mg/kg daily oral gavage, treatment week 5
  Albuminuria: mean ± SEM: 38936 ± 7988 ug/24 h
SPP301 10 mg/kg daily oral gavage, treatment week 7
  Albuminuria: mean ± SEM: 38980 ± 9642 ug/24 h
SPP301 30 mg/kg daily oral gavage, Baseline
  Albuminuria: mean ± SEM: 413 ± 151 ug/24 h
SPP301 30 mg/kg daily oral gavage, treatment week 3
  Albuminuria: mean ± SEM: 11824 ± 2343 ug/24 h
SPP301 30 mg/kg daily oral gavage, treatment week 5
  Albuminuria: mean ± SEM: 43160 ± 10250 ug/24 h
SPP301 30 mg/kg daily oral gavage, treatment week 7
  Albuminuria: mean ± SEM: 37416 ± 16057 ug/24 h
SPP301/avosentan at 10 or 30 mg/kg daily dosing
  urinary albumin contents: ≤ 39 mg
